According to PubChem BioAssay AID248 (DTP/NCI, 2004):
Where “and” joins values, the source holds several entries; their conditions need not be identical. Equal entries are not always repeated. Toxic doses and inconclusive results are not listed. Cut-off read from the data, not from the text of the source: active = T/C of 150% or more; inactive = T/C below 125%.

Tested on: L1210 leukemia ip in BDF1 mice, survival T/C
Assay: NCI In Vivo Anticancer Drug Screen. Data for tumor model L1210 Leukemia (intraperitoneal) in B6D2F1 (BDF1) mice
Settings: endpoint: mean survival time, higher = longer survival
Outline: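 Ratio derived from survival: compound-dosed mice over vehicle-dosed mice, all bearing a transplantable tumor.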

[1] = dose: 100.0 mg/kg/injection, schedule: Q04DX003 (ip), vehicle: saline with Tween-80
[2] = dose: 200.0 mg/kg/injection, schedule: Q01DX009 (ip), vehicle: saline with Tween-80
[3] = dose: 400.0 mg/kg/injection, schedule: Q01DX009 (ip), vehicle: saline with Tween-80
[4] = dose: 400.0 mg/kg/injection, schedule: Q04DX003 (ip), vehicle: saline with Tween-80
[5] = dose: 200.0 mg/kg/injection, schedule: Q04DX003 (ip), vehicle: saline with Tween-80
[6] = dose: 25.0 mg/kg/injection, schedule: Q04DX003 (ip), vehicle: saline with Tween-80
[7] = dose: 50.0 mg/kg/injection, schedule: Q04DX003 (ip), vehicle: saline with Tween-80

Measured: T/C

CCCCCCCCCCCCCCS(=O)(=O)CCCl
inactive: dose: 100.0 mg/kg/injection, schedule: Q04DX003 (ip), vehicle: carboxymethylcellulose (CMC) 98 % of control | dose: 200.0 mg/kg/injection, schedule: Q04DX003 (ip), vehicle: carboxymethylcellulose (CMC) 94 % of control | dose: 400.0 mg/kg/injection, schedule: Q04DX003 (ip), vehicle: carboxymethylcellulose (CMC) 94 % of control

Cc1ccc(NC(=O)Nc2cccc(C(F)(F)F)c2)cc1NC(=O)Nc1cccc(C(F)(F)F)c1
inactive: [1] 93 % of control | [2] 92 % of control | [3] 103 % of control | [4] 88 % of control

c1ccc(Oc2nnc3c4ccccc4ccn23)cc1
inactive: dose: 100.0 mg/kg/injection, schedule: Q01DX001 (ip), vehicle: carboxymethylcellulose (CMC) 98 % of control | dose: 200.0 mg/kg/injection, schedule: Q01DX001 (ip), vehicle: carboxymethylcellulose (CMC) 98 % of control | dose: 400.0 mg/kg/injection, schedule: Q01DX001 (ip), vehicle: carboxymethylcellulose (CMC) 98 % of control

COc1cc(C=O)cc(Br)c1O
inactive: dose: 100.0 mg/kg/injection, schedule: Q04DX002 (ip), vehicle: saline with Tween-80 97 % of control | dose: 200.0 mg/kg/injection, schedule: Q04DX002 (ip), vehicle: saline with Tween-80 93 % of control | dose: 400.0 mg/kg/injection, schedule: Q04DX002 (ip), vehicle: saline with Tween-80 87 % of control

O=C(/C=C/c1ccccc1)N1CC2CCC(CC2)C1
inactive: [1] 95 % of control | [5] 93 % of control

O=C1CCC(=O)C2CC=CCC12 (configuration not stated)
inactive: dose: 100.0 mg/kg/injection, schedule: Q## X003 (ip), vehicle: saline 101 % of control | dose: 200.0 mg/kg/injection, schedule: Q## X003 (ip), vehicle: saline 108 % of control | dose: 400.0 mg/kg/injection, schedule: Q## X003 (ip), vehicle: saline 98 % of control

O=C(O)C1(c2ccccc2)OC1c1ccccc1 (configuration not stated)
inactive: dose: 100.0 mg/kg/injection, schedule: Q01DX001 (ip), vehicle: Klucel (hydroxypropylcellulose) (HPC) 93 % of control | dose: 100.0 mg/kg/injection, schedule: Q04DX003 (ip), vehicle: Klucel (hydroxypropylcellulose) (HPC) 95 % of control | [1] 90 % of control | dose: 200.0 mg/kg/injection, schedule: Q01DX001 (ip), vehicle: Klucel (hydroxypropylcellulose) (HPC) 91 % of control | dose: 200.0 mg/kg/injection, schedule: Q04DX003 (ip), vehicle: Klucel (hydroxypropylcellulose) (HPC) 95 % of control | [5] 86 % of control | dose: 400.0 mg/kg/injection, schedule: Q01DX001 (ip), vehicle: Klucel (hydroxypropylcellulose) (HPC) 93 % of control | dose: 400.0 mg/kg/injection, schedule: Q04DX003 (ip), vehicle: Klucel (hydroxypropylcellulose) (HPC) 86 % of control | [4] 92 % of control

CC(=O)Nc1ccc(SC(=O)N(C)C)cc1
inactive: dose: 12.5 mg/kg/injection, schedule: Q01DX009 (ip), vehicle: saline + alcohol 90 % of control | dose: 25.0 mg/kg/injection, schedule: Q01DX009 (ip), vehicle: saline + alcohol 95 % of control | [6] 98 % of control | dose: 50.0 mg/kg/injection, schedule: Q01DX009 (ip), vehicle: saline + alcohol 101 % of control | [7] 104 % of control | [1] 103 % of control

Cn1nc(N)c2ncc(-c3ccc(Cl)cc3)nc21
inactive: dose: 100.0 mg/kg/injection, schedule: Q01DX009 (ip), vehicle: saline with Tween-80 93 % of control | [2] 96 % of control | [3] 87 % of control

Clc1cc[c]([Sn]([Cl])([c]2ccc(Cl)cc2)[c]2ccc(Cl)cc2)cc1
inactive: dose: 1.56 mg/kg/injection, schedule: Q01DX009 (ip), vehicle: saline 98 % of control | dose: 3.12 mg/kg/injection, schedule: Q01DX009 (ip), vehicle: saline 106 % of control

CC(CN(C)C)CN1c2ccccc2Sc2ccccc21 (configuration not stated)
inactive: dose: 3.12 mg/kg/injection, schedule: Q04DX003 (ip), vehicle: saline with Tween-80 105 % of control | dose: 3.12 mg/kg/injection, schedule: Q04DX003 (ip), vehicle: saline 96 % of control | dose: 6.12 mg/kg/injection, schedule: Q04DX003 (ip), vehicle: saline with Tween-80 101 % of control | dose: 6.25 mg/kg/injection, schedule: Q04DX003 (ip), vehicle: saline 100 % of control and 104 % of control | dose: 12.5 mg/kg/injection, schedule: Q04DX003 (ip), vehicle: saline with Tween-80 105 % of control | dose: 12.5 mg/kg/injection, schedule: Q04DX003 (ip), vehicle: saline 102 % of control and 113 % of control | [6] 103 % of control | dose: 25.0 mg/kg/injection, schedule: Q04DX003 (ip), vehicle: saline 102 % of control | [7] 120 % of control
